Results on 106 molecules are retold here after PubChem BioAssay AID1996.

The term kinetic solubility denotes solubility judged after dilution from a stock solution rather than from solid.

SMILES strings stand for the structures. In brackets after ≈: the same amount, converted by molar mass.

For this series the following is noted: buffer; pH 7.4; 200.0 µM.
For the molecule `O=[N+]([O-])c1ccc(Cl)c(S(=O)(=O)/N=C(/Nc2cccnc2)c2ccccc2)c1`, the solubility (kinetic) was over 62.5 µg/mL.
The molecule `O=C(CCSc1ccc(Cl)cc1)NCc1ccncc1` gave a kinetic solubility of over 46 µg/mL.
The result for `COc1ccc(CNC(=O)CN(c2ccc(C(C)=O)cc2)S(=O)(=O)c2ccc(C)cc2)cc1OC` reads 4.1 µg/mL (≈ 8.26 µM).
To `c1ccc2sc(NC3=NCN(CC4CCCO4)CN3)nc2c1` (stereo unspecified) belongs 42.1 µg/mL (≈ 133 µM); to `CN1C(=O)c2ccccc2N(C)C1c1cccc(O)c1` (stereo unspecified), 38.1 µg/mL (≈ 142 µM); to `COc1ccc(CCNC(=O)CSc2ccccn2)cc1`, over 45.4 µg/mL.
To `O=C1N(CN2CCOCC2)c2ccccc2C12OCC(CCl)O2` (stereo unspecified) belongs 49.6 µg/mL (≈ 146 µM); to `O=C(c1ccc(=O)oc1)N1CCC(C(O)(c2ccccc2)c2ccccc2)CC1`, 57.3 µg/mL (≈ 147 µM); to `COc1ccc(CCNC(=O)CCNC(=O)c2ccco2)cc1`, over 47.5 µg/mL.
In the case of `COc1ccc(C2NC(=O)c3ccccc3N2)cc1` (stereo unspecified), the kinetic solubility came out at 33.2 µg/mL (≈ 131 µM).
The molecule `COc1cccc(NC(=S)N2CCc3cc(OC)c(OC)cc3C2)c1` displayed a kinetic solubility of 4.9 µg/mL (≈ 13.7 µM).
The result for `C1=NCCc2c1[nH]c1ccccc21.[O-][Cl+3]([O-])([O-])O` reads over 40.6 µg/mL; that for `O=C(CN1C(=O)C2CC=CCC2C1=O)N1CCN(S(=O)(=O)c2ccccc2)CC1` (stereo unspecified), over 62.6 µg/mL; that for `Cc1nn(C)c(Cl)c1CN1CCN(CCC(C)C)C(CCO)C1` (stereo unspecified), over 51.4 µg/mL.
The molecule `O=C(NC(=S)Nc1ccccc1N1CCCC1)c1cccs1` came in with a kinetic solubility of 3.2 µg/mL (≈ 9.65 µM).
The result for `O=C1CNC(=S)N1CCc1ccc(O)c(O)c1` reads 32.3 µg/mL (≈ 128 µM).
`O=C(CN1C(=O)NC2(CCCCC2)C1=O)Nc1ccc(Cl)cc1` returned a solubility (kinetic) of 11.3 µg/mL (≈ 33.7 µM).
Molecule `Oc1nc(-c2ccc(Cl)cc2)n2ccncc12` yielded a solubility (kinetic) of over 36.9 µg/mL.
To `COc1ccc(S(=O)(=O)N(C)CC(=O)N2CCCC2)cc1` belongs over 46.9 µg/mL.
The result for `COC(=O)c1ccc(COC(=O)CNC(=O)c2ccc(OC)cc2)cc1` reads 17.3 µg/mL (≈ 48.4 µM); that for `CCn1c(=O)c2ccccc2n(Cc2cccc(C)c2)c1=O`, 19.9 µg/mL (≈ 67.6 µM).
To `Cc1[nH]c2ccccc2c(=O)c1C(=O)/C=C/c1ccccc1` belongs 35.8 µg/mL (≈ 124 µM); to `CCN(C(=O)C1=COCCO1)c1nc2c(C)cccc2s1`, 7.5 µg/mL (≈ 24.6 µM); to `COc1ccc(NS(=O)(=O)c2cc(NC(=O)COc3ccc(OC)cc3)ccc2N2CCOCC2)cc1`, 3.4 µg/mL (≈ 6.44 µM).
Consider `COc1ccc(C(=O)/C=C2/C(=O)Nc3ccccc32)cc1OC`, for which the solubility (kinetic) is 1.2 µg/mL (≈ 3.88 µM). Compared with the last molecule, the solubility kinetic is about 2.8-fold lower.
In the case of `O=C(CN1CCOCC1)Nc1ccc(F)cc1`, the solubility (kinetic) is over 35.7 µg/mL.
The result for `CN(C)CCCN1C(=O)CSC1c1ccc([N+](=O)[O-])cc1.Cl` (stereo unspecified) reads 47.6 µg/mL; that for `Cc1ccc(NC(=O)c2ccccc2F)c(NC(=O)c2ccccc2F)c1`, 6.4 µg/mL (≈ 17.5 µM); that for `O=C(N1CCCC1)C12CC3CC(CC(Cl)(C3)C1)C2`, 37.9 µg/mL (≈ 142 µM).
The result for `COCCNc1nc(N)c([N+](=O)[O-])c(N2CCCCCC2)n1` reads 6.3 µg/mL (≈ 20.3 µM); that for `O=C(COC(=O)COc1ccccc1)Nc1ncc(Cl)cc1Cl`, 47 µg/mL (≈ 132 µM).
To `Cl.OCCCNCc1ccc(-c2ccccc2)cc1` belongs over 41.7 µg/mL.
Consider `Cc1ccc(NC(=S)NCC2CCN(C(C)c3ccccc3)C2)cc1` (stereo unspecified), for which the solubility (kinetic) is over 53 µg/mL.
`NC(=S)Nc1nc2ccccc2s1` returned a solubility (kinetic) of 25.8 µg/mL (≈ 123 µM).
To `CS(=O)(=O)c1ccc(C(=O)NCc2ccc(F)cc2)cc1` belongs 38.5 µg/mL (≈ 125 µM); to `CN(C)CCC=C1c2ccccc2CCc2ccccc21.Cl`, over 47.1 µg/mL; to `O=C(O)C1CCN(C(=O)CSc2nnc3ccccn23)CC1`, over 48.1 µg/mL.
The result for `COC(=O)c1c(C)[nH]c(C(=O)OCC(=O)c2ccc(C)s2)c1C` reads 5.7 µg/mL (≈ 17 µM); that for `N#Cc1cccc(CSc2ncnc(N)n2)c1`, over 36.5 µg/mL; that for `Cc1cc(C)n(C)c(=O)c1C#N`, over 24.3 µg/mL.
To `CC(=O)c1c(C)n(-c2cccc(Cl)c2)c2ccc(O)cc12` belongs under 0.6 µg/mL; to `CC1Cc2ccccc2N1C(=O)Cn1cnc2ccccc21` (stereo unspecified), 42.3 µg/mL (≈ 145 µM); to `CCc1nc2c(c(=O)[nH]1)C(CC)(CC)Cc1ccccc1-2`, 0.7 µg/mL (≈ 2.48 µM).
Consider `O=C(COC(=O)c1cc([N+](=O)[O-])ccc1Cl)NC1CCCC1`, for which the solubility (kinetic) is over 49 µg/mL.
To `Cc1cc(C)c2c(CC(=O)N3CCCC3)coc2c1` belongs over 38.6 µg/mL; to `Fc1ccccc1-c1nc(-c2cnccc2C(F)(F)F)no1`, 8 µg/mL (≈ 25.9 µM).
The molecule `COC(=O)CSc1nc2ccc(N)cc2s1` displayed a solubility (kinetic) of over 38.1 µg/mL.
To `O=[N+]([O-])c1ccc(NCc2ccncc2)cc1` belongs over 34.4 µg/mL.
To `COc1ccc2c(C=O)cn(C)c2c1` belongs over 28.4 µg/mL; to `Nc1ccccc1C(=O)N1CCCC1`, over 28.5 µg/mL.
The result for `O=C(CN1c2cccc3cccc(c23)S1(=O)=O)NC1CCCCC1` reads 5 µg/mL (≈ 14.5 µM).
As to `CN(C)C(=S)Nc1ccc(Br)c(Cl)c1`, the solubility (kinetic) came to 37 µg/mL (≈ 126 µM).
In turn, `CC(C)N(Cc1cc2ccccc2[nH]c1=O)C(=O)c1cccc([N+](=O)[O-])c1` returned a kinetic solubility of 3.4 µg/mL (≈ 9.31 µM). Compared with the last molecule, the solubility kinetic is about 11-fold lower.
To `Cc1cc(C(=O)Nc2ccc(OCc3ccccc3)cc2)c(C)o1` belongs under 0.7 µg/mL.
The result for `C#CCOc1ccc2ccccc2c1/C=C(/C#N)c1ccc(C(=O)O)cc1` reads 53 µg/mL (≈ 150 µM); that for `CN(C1CCCCC1)S(=O)(=O)c1ccc2[nH]c(=O)oc2c1`, over 46.6 µg/mL; that for `Cc1ccnc(NCc2c(O)ccc3ccccc23)c1`, 9.2 µg/mL (≈ 34.8 µM).
The result for `Cc1ccc(NC(=O)C2CC(=O)N(C(C)C)C2)cc1C` (stereo unspecified) reads over 41.2 µg/mL; that for `FC(F)(F)c1cnc(COc2ccc(Cl)cc2Cl)c(Cl)c1`, under 0.8 µg/mL.
The molecule `COc1ccc(CC(=O)N2CCCC2)c(OC)c1` came in with a kinetic solubility of 36.6 µg/mL (≈ 147 µM).
The result for `COc1ccc(NC(=O)COC(=O)C2CC2)c(OC)c1` reads over 41.9 µg/mL; that for `CCOc1ccccc1NC(=S)N1CCCc2ccccc21`, 10.5 µg/mL (≈ 33.6 µM); that for `Cc1ccc(C(=O)NCC(=O)NC2CCCC2)cc1`, 30.4 µg/mL (≈ 117 µM).
To `COc1cc2c(cc1/C=C/[N+](=O)[O-])OCO2` belongs 6.5 µg/mL (≈ 29.1 µM); to `Cc1sc(NC(=O)COc2ccccc2)c(C#N)c1C`, 0.5 µg/mL (≈ 1.75 µM); to `O=c1[nH]c(-c2ccccc2)c(-c2ccccc2)o1`, 14.8 µg/mL (≈ 62.4 µM).
On to `CN(C)c1ncnc(N(C)C)c1[N+](=O)[O-]`, for which the kinetic solubility is over 31.7 µg/mL.
The result for `COc1ccccc1N1C(=O)c2cccnc2C1=O` reads 34.9 µg/mL (≈ 137 µM); that for `Cc1csc(=O)n1CC(=O)Nc1ccc(S(C)(=O)=O)cc1`, over 49 µg/mL.
To `CCN1CCN(CC(=O)Nc2ccc(C(C)=O)cc2)CC1.Cl` belongs 45.2 µg/mL; to `Cc1ccc2c(CN(C)Cc3ccc(Cl)cc3)cc(=O)oc2c1`, 1.9 µg/mL (≈ 5.8 µM).
In turn, `NS(=O)(=O)c1ccc(NC(=O)CCC(=O)c2cccs2)cc1` had a solubility (kinetic) of 14.7 µg/mL (≈ 43.4 µM).
Turning to `CC(=O)Nc1ccc2c(c1)ncn2-c1ccccc1`, the solubility (kinetic) is over 37.7 µg/mL.
The result for `CC(O)CCC(=O)NNC(=S)Nc1ccccc1` (stereo unspecified) reads over 40.1 µg/mL.
The result for `COc1ccc(-n2c(=S)[nH]c3ccccc3c2=S)cc1` reads 1.4 µg/mL (≈ 4.66 µM); that for `c1ccc(-c2nc3cccnc3nc2-c2ccccc2)cc1`, 33.1 µg/mL (≈ 117 µM); that for `Cc1csc(Nc2nc(N)c(C(=O)Nc3ccccc3)o2)n1`, 3.3 µg/mL (≈ 10.5 µM).
Regarding `O=C1C2C3C=CC(C3)C2C(=O)N1c1cccc2ccccc12` (stereo unspecified), the kinetic solubility turned out to be 22.9 µg/mL (≈ 79.1 µM). This solubility kinetic is about 6.9-fold higher than that of the molecule before.
The molecule `Cc1cc(C(=O)Nc2ccncc2)c2ccccc2n1` registered a kinetic solubility of 26.3 µg/mL (≈ 99.9 µM).
The result for `COc1ccc(CCC(=O)OCC(=O)NC(=O)c2ccc(Cl)cc2)cc1` reads 7.2 µg/mL (≈ 19.2 µM); that for `Cc1ccc(Sc2cnccc2C#N)cc1`, 15.4 µg/mL (≈ 68.1 µM).
The result for `CCCCCCC(=O)Nc1ccc(Br)cn1` reads 1.6 µg/mL (≈ 5.61 µM).
The result for `O=c1o[nH]c(-c2ccccc2)c1-c1ccccc1` reads 35 µg/mL (≈ 148 µM); that for `C[C@H](NC(=O)c1ccco1)C(=O)N1CCN(c2ccc(C(F)(F)F)cn2)CC1`, over 59.5 µg/mL.
Molecule `CC(=O)c1c[nH]c(C(=O)NC2CCCCCC2)c1` had a kinetic solubility of 34.9 µg/mL (≈ 141 µM).
To `O=C(NCCc1c[nH]c2ccccc12)c1ccccc1Cl` belongs 23.2 µg/mL (≈ 77.7 µM).
The result for `Cc1c(C(=O)N2CCN(S(=O)(=O)c3cccs3)CC2)oc2ccc(F)cc12` reads 13.6 µg/mL (≈ 33.3 µM); that for `CCOc1ncccc1C(=O)NCc1ccccc1F`, over 41.1 µg/mL; that for `Nc1ccc(Sc2ccccc2)nc1`, over 30.3 µg/mL.
The result for `CC(C)Oc1cccc(C2NC(=O)c3ccccc3O2)c1` (stereo unspecified) reads 6.7 µg/mL (≈ 23.6 µM); that for `O=C(CC(=O)NCc1ccc(Cl)cc1)NCc1ccccc1`, 7.1 µg/mL (≈ 22.4 µM); that for `O=C(Nc1ccc2ccccc2c1)C(=O)C1C(=O)Nc2ccccc21` (stereo unspecified), 3.7 µg/mL (≈ 11.2 µM).
Turning to `CN1CCN(C(=O)C2CCC(C)(C(=O)O)C2(C)C)CC1` (stereo unspecified), the solubility (kinetic) turned out to be 40.5 µg/mL (≈ 143 µM). This solubility kinetic is about 11-fold higher than that of the molecule before.
`O=C(NCc1cccnc1)C12CC3CC(CC(C3)C1)C2` showed a kinetic solubility of 38.7 µg/mL (≈ 143 µM).
The result for `Nc1nccc(-c2ccc(-n3cnc4ccccc43)cc2)n1` reads 2 µg/mL (≈ 6.96 µM); that for `COc1cccc(C(=O)OCC(=O)N2CCc3ccccc3C2)c1`, 46.1 µg/mL (≈ 142 µM).
`Cc1ccc(CN2CCC(NC(=O)c3ccccc3)CC2)cc1` yielded a kinetic solubility of over 46.3 µg/mL.
Molecule `CNC(=O)CSc1nnc(-c2ccco2)n1-c1cc(C)ccc1C` registered a solubility (kinetic) of over 51.4 µg/mL.
The result for `N#CCCN(Cc1ccccc1)C(=O)Nc1ccc2c(c1)CCO2` reads 21.7 µg/mL (≈ 67.5 µM); that for `O=[N+]([O-])c1cccc2ncccc12`, 16.3 µg/mL (≈ 93.6 µM).
To `CSCCC1NC(=S)N(Cc2ccccc2)C1=O` (stereo unspecified) belongs over 42.1 µg/mL; to `Fc1ccc(-n2c(-c3ccco3)n[nH]c2=S)cc1`, over 39.2 µg/mL.
To `CSc1nccc(Oc2ccccc2Cl)n1` belongs 6.8 µg/mL (≈ 26.9 µM); to `CC1CN(S(=O)(=O)c2cccc(C(F)(F)F)c2)CC(C)O1` (stereo unspecified), 43.6 µg/mL (≈ 135 µM).
With `CSc1ccccc1Nc1ncnc(N)n1`, the kinetic solubility was 25.8 µg/mL (≈ 111 µM).
The result for `CC(C)c1ccc(NC2CCCN(C(=O)c3ccoc3)C2)cc1` (stereo unspecified) reads over 46.9 µg/mL.
